Measurements as given in patent US20110281944A1, “METHOD OF A RHEIN COMPOUND FOR INHIBITING PANCREATIC ISLET BETA-CELL DYSFUNCTION AND PREVENTING OR TREATING A PANCREATIC ISLET BETA-CELL DYSFUNCTION RELATED DISORDER” (Research Institute of Nephrology of Nanjing PLA, China, priority 2010, published 2011).
“And” between values parts separate entries of the source, which are not always exact repeats. Equal values may be shown once. “Also recorded” adds a separate entry of the source.

Experiments:
[1] = tested on: pancreatic islet β-cells of obese rats; test: Insulin expression in pancreatic islets of obese rats; assay type: in vivo, Wistar rats; conditions: rhein for 4 weeks, vs obese control group
Text: (§1) Experimental animals: Insulin-resistant obese rats are 4-week in-bred female Wistar rats induced by feeding with high-sugar high-fat feedstuff (20% sugar, 10% lard, 2.5% cholesterol, 1% cholic acid and 66.5% normal feedstuff) for 3 weeks.
(§2) Administration to the experimental animals: Thirty insulin-resistant obese rats are randomly assigned to treatment group and control group. Additional fifteen normal Wistar rats of 7 week old are used as normal control group. The treatment group of insulin-resistant obese rats is treated with rhein (100 mg/Kg, dissolved in 0.1% cellulose sodium) by gavage for continuous 4 weeks. The insulin-resistant obese control group and the normal control group are administrated with 0.1% cellulose sodium by gavage.

[2] = tested on: insulin-resistant obese rats; test: Hyperglycemic clamp in obese rats after treatment with rhein for 4 weeks; assay type: in vivo, Wistar rats
Text: as §1, §2

[3] = tested on: pancreatic islet β-cells of db/db mice; test: Immunohistochemical insulin staining and metrology analysis of pancreatic islets (β-cell amount); assay type: in vivo; conditions: administration for 8 weeks
Description: (§3) The agents and animals used in this example are the same as those used in example 1.
Experimental methods: Immunohistochemical assay. The mice are anaesthetized with phenobarbital sodium, perfused with physiological saline via heart, and fixed with 4% polyoxymethylene. The pancreas are removed, and then placed in 4% polyoxymethylene for 4-6 hours, embedded in paraffin, and sliced into a thickness of 5 um. The slices are dewaxed with xylene, rehydrated with ethanol at different gradient concentrations, and then treated with 0.3% hydrogen peroxide at room temperature for 20 min, so as to block the activity of endogenous peroxidase. The samples are treated with steams at 121° C. under high pressure for 10 min for repairing the antigen. 10% goat serum is added for blocking non-specific antigens. Rabbit-anti-mouse insulin antibody is added, and reacted at 4° C. overnight for 14 hours. […]
Metrology analysis of pancreatic islets: All of the slices are observed with optical microscope E800 (Nikon, Japan), and photographed with a digital camera (Sony, Japan) connected with the microscope. The digital photographs are obtained via Axiovision 4.3 software, and analyzed with Image-Pro Plus 5.0.1. Fifteen pancreatic islet photographs are randomly selected for each mouse, and at least 50 pancreatic islet photographs are analyzed for each group. […]

[4] = tested on: type 2 diabetic db/db mice; test: Intraperitoneal glucose tolerance test (IPGTT) on db/db mice after treatment with rhein for 8 weeks; assay type: in vivo; conditions: rhein 120 mg/Kg gavage 8 weeks
Description: Administration to the experimental animals: Thirty diabetic db/db mice of 4 week old are randomly assigned to treatment group and control group. Additional fifteen normal db/m mice of 4 week old are used as normal control group. The treatment group of diabetic db/db mice is treated with rhein (120 mg/Kg, dissolved in 0.1% cellulose sodium) by gavage for continuous 8 weeks. The diabetic control group of db/db mice and the normal control group of db/m mice are administrated 0.1% cellulose sodium by gavage.
Experimental methods: The intraperitoneal glucose tolerance test (IPGTT) is carried out on the mice after administration for 8 weeks. The mice are fasted overnight, and then are administrated by i.p. injection of glucose at 0.5 g/kg body weight. Blood is collected at 0, 30, 60 and 120 min for detecting whole blood glucose level and insulin level and calculating the area under the curve (AUC) of insulin. The area under the curve of insulin during 0˜30 min (AUCINS0.30) is calculated as: (insulin level at 30 min[…]insulin level at 0 min)×15, for evaluating the ability of early phase insulin secretion.

[5] = tested on: pancreatic islets of type 2 diabetic db/db mice; test: Pancreatic islet isolation and perfusion, first phase insulin secretion; assay type: ex vivo
Description: as §3
Experimental methods: After 8 weeks of administration, 5 mice are randomly selected from each group for pancreatic islet isolation and perfusion as follows. After anesthesia, the opening of common bile duct at duodenal papilla for each animal is clamped in vivo. 2 ml IV type collagenase is injected at the concentration of 1 mg/ml after performing common bile duct puncture under a stereoscopic microscope. After entering the pancreatic duct reversely to expand the pancreas, the pancreas is rapidly removed. The pancreas is placed in Hank's buffer containing 1 mg/ml collagenase and digested for 40 min to remove the collagens, and then washed under vibration for several times. Pancreatic islets are successfully isolated under microscopy. The pancreatic islets are incubated in a CO2 incubator for 2 hour with 50 islets per group, and then the islets are placed into a specially manufactured constant-temperature perfusion equipment. The […] are perfused with 2.8 mM glucose using a Harvard micro-pump at 0.5 ml/min for glucose starvation perfusion, and after 30 min, perfusion of high glucose (16.7 Mm) is performed at 1 ml/min. […] The first phase insulin secretion and dynamic secretion level of insulin are reflected from the curve of insulin levels measured.

[6] = Oral absorption kinetics and pharmacokinetics of rhein in rats; assay type: in vivo, Wistar rats
Description: Grouping of the animals and experimental procedure: Eighteen Wistar rats (male: female=1:1; body weight=180˜210 g) are randomly divided into 3 groups, 6 animal each group (male 3, female 3). The animals are fastened but supplied with free water for 10 h, and then are administrated ig with 35 mg/kg, 70 mg/kg or 140 mg/kg rhein. Blood samples are collected from carotid artery cannula at 0.033 h, 0.083 h, 0.25 h, 0.5 h, 0.75 h, 1 h, 2 h, 3 h, 4 h, 6 h, 8 h, 12 h and 14 h after administration, and centrifuged. 50 μl plasma is used for HPLC-fluorescence (FLD) analysis. The obtained plasma rhein concentration-time data are used for calculating pharmacokinetic parameters via corresponding pharmacokinetic programmes.

[7] = rhein 100 mg/Kg by gavage for 4 weeks

## O=C(O)c1cc(O)c2c(c1)C(=O)c1cccc(O)c1C2=O [rhein]
[1]
  insulin expression level in the islets: significantly improves the insulin expression level in the islets
[2]; [7]
  FBG (fasting blood glucose): 5.3 ± 0.5 mmol/L
  SSBG (steady state blood glucose): 14.9 ± 0.8 mmol/L
[2]; rhein 100 mg/Kg by gavage for 4 weeks, Table 1
  GIR (glucose infusion rate): 32.2 ± 2.9 mg/kg/min
[2]; treatment with rhein for 4 weeks
  glucose infusion rate (GIR) at steady-state: 26.1 ± 2.9 mg/kg/min
[3]; vs db/db control group
  insulin expression level in the pancreatic islets (insulin staining): significantly enhances insulin expression level in the pancreatic islets
[3]; vs untreated db/db
  amount (mass) of pancreatic islet β-cells: increases the mass of pancreatic islet β-cells; also recorded: significantly reduces the loss of pancreatic islet β-cells
[4]
  AUC-glucose: 1834 ± 151
  AUC-insulin: 812 ± 80
  AUCINSO-30 (AUC of insulin within 0-30 min): 63 ± 32
[4]; 0 min
  Blood glucose: 7.6 ± 0.7 mmol/L
  plasma insulin: 5.3 ± 0.7 µg/L
[4]; 30 min
  Blood glucose: 19.5 ± 1.5 mmol/L
  plasma insulin: 9.5 ± 1.9 µg/L
[4]; 60 min
  Blood glucose: 18.3 ± 2.0 mmol/L
  plasma insulin: 6.0 ± 0.7 µg/L
[4]; 120 min
  Blood glucose: 10.4 ± 1.1 mmol/L
  plasma insulin: 5.9 ± 0.6 µg/L
[5]; islets of rhein-treated db/db mice, high glucose 16.7 mmol/L for 1 min
  insulin level after high glucose stimulation relative to basal level: 7 times as high as basal level
[5]; type 2 diabetic db/db mice, pancreatic islet perfusion
  first phase insulin secretion: significantly improves the first phase insulin secretion; also recorded: increases the first phase insulin secretion
[6]; gavage 35 mg/kg, 0.033 h, individual rats 1-6, 35 mg/kg
  Plasma rhein concentration: 15.34 µg/mL and 19.11 µg/mL and 10.10 µg/mL and 10.54 µg/mL and 24.21 µg/mL and 9.45 µg/mL
[6]; gavage 35 mg/kg, 0.033 h, mean (X) of 6 rats
  Plasma rhein concentration: 14.79 µg/mL
[6]; gavage 35 mg/kg, 0.083 h, individual rats 1-6, 35 mg/kg
  Plasma rhein concentration: 22.07 µg/mL and 44.52 µg/mL and 22.33 µg/mL and 16.18 µg/mL and 40.94 µg/mL and 19.99 µg/mL
[6]; gavage 35 mg/kg, 0.083 h, mean (X) of 6 rats
  Plasma rhein concentration: 27.67 µg/mL
[6]; gavage 35 mg/kg, 0.25 h, individual rats 1-6, 35 mg/kg
  Plasma rhein concentration: 27.43 µg/mL and 45.05 µg/mL and 26.00 µg/mL and 26.86 µg/mL and 59.77 µg/mL and 24.59 µg/mL
[6]; gavage 35 mg/kg, 0.25 h, mean (X) of 6 rats
  Plasma rhein concentration: 34.95 µg/mL
[6]; gavage 35 mg/kg, 0.50 h, individual rats 1-6, 35 mg/kg
  Plasma rhein concentration: 22.01 µg/mL and 22.71 µg/mL and 28.87 µg/mL and 26.88 µg/mL and 55.32 µg/mL and 22.99 µg/mL
[6]; gavage 35 mg/kg, 0.50 h, mean (X) of 6 rats
  Plasma rhein concentration: 29.80 µg/mL
[6]; gavage 35 mg/kg, 0.75 h, individual rats 1-6, 35 mg/kg
  Plasma rhein concentration: 18.92 µg/mL and 18.72 µg/mL and 35.43 µg/mL and 35.51 µg/mL and 45.07 µg/mL and 15.62 µg/mL
[6]; gavage 35 mg/kg, 0.75 h, mean (X) of 6 rats
  Plasma rhein concentration: 28.21 µg/mL
[6]; gavage 35 mg/kg, 1.0 h, individual rats 1-6, 35 mg/kg
  Plasma rhein concentration: 19.13 µg/mL and 19.96 µg/mL and 21.75 µg/mL and 27.32 µg/mL and 37.07 µg/mL and 15.78 µg/mL
[6]; gavage 35 mg/kg, 1.0 h, mean (X) of 6 rats
  Plasma rhein concentration: 23.50 µg/mL
[6]; gavage 35 mg/kg, 2.0 h, individual rats 1-6, 35 mg/kg
  Plasma rhein concentration: 8.25 µg/mL and 4.26 µg/mL and 7.88 µg/mL and 7.44 µg/mL and 7.45 µg/mL and 15.41 µg/mL
[6]; gavage 35 mg/kg, 2.0 h, mean (X) of 6 rats
  Plasma rhein concentration: 8.45 µg/mL
[6]; gavage 35 mg/kg, 3.0 h, individual rats 1-6, 35 mg/kg
  Plasma rhein concentration: 4.03 µg/mL and 4.23 µg/mL and 4.39 µg/mL and 4.04 µg/mL and 2.99 µg/mL and 4.38 µg/mL
[6]; gavage 35 mg/kg, 3.0 h, mean (X) of 6 rats
  Plasma rhein concentration: 4.01 µg/mL
[6]; gavage 35 mg/kg, 4.0 h, individual rats 1-6, 35 mg/kg
  Plasma rhein concentration: 3.98 µg/mL and 4.16 µg/mL and 1.70 µg/mL and 3.75 µg/mL and 1.31 µg/mL and 4.91 µg/mL
[6]; gavage 35 mg/kg, 4.0 h, mean (X) of 6 rats
  Plasma rhein concentration: 3.30 µg/mL
[6]; gavage 35 mg/kg, 6.0 h, individual rats 1-6, 35 mg/kg
  Plasma rhein concentration: 3.08 μg/ml (2×) and 2.69 μg/ml and 2.89 μg/ml and 0.57 μg/ml and 0.86 μg/ml
[6]; gavage 35 mg/kg, 6.0 h, mean (X) of 6 rats
  Plasma rhein concentration: 2.19 µg/mL
[6]; gavage 35 mg/kg, 8.0 h, individual rats 1-6, 35 mg/kg
  Plasma rhein concentration: 4.99 µg/mL and 0.75 µg/mL and 1.94 µg/mL and 2.05 µg/mL and 1.07 µg/mL and 0.34 µg/mL
[6]; gavage 35 mg/kg, 8.0 h, mean (X) of 6 rats
  Plasma rhein concentration: 1.86 µg/mL
[6]; gavage 35 mg/kg, 12.0 h, individual rats 1-6, 35 mg/kg
  Plasma rhein concentration: 0.58 μg/ml and 0.18 μg/ml and 1.13 μg/ml and 1.35 μg/ml and ND (Lower than the minimal detectable concentration 0.13 μg/ml) and 0.36 μg/ml
[6]; gavage 35 mg/kg, 12.0 h, mean (X) of 6 rats
  Plasma rhein concentration: 0.60 µg/mL
[6]; gavage 35 mg/kg, 14.0 h, individual rats 1-6, 35 mg/kg
  Plasma rhein concentration: 0.51 μg/ml and ND (Lower than the minimal detectable concentration 0.13 μg/ml) (3×) and 0.50 μg/ml and 0.56 μg/ml
[6]; gavage 35 mg/kg, 14.0 h, mean (X) of 6 rats
  Plasma rhein concentration: 0.35 µg/mL
[6]; gavage 70 mg/kg, 1.0 h, individual rats 1-6, 70 mg/kg
  Plasma rhein concentration: 30.42 µg/mL and 40.86 µg/mL and 29.41 µg/mL and 35.89 µg/mL and 20.75 µg/mL and 58.65 µg/mL
[6]; gavage 70 mg/kg, 1.0 h, mean (x) of 6 rats
  Plasma rhein concentration: 36.00 µg/mL
[6]; gavage 70 mg/kg, 2.0 h, individual rats 1-6, 70 mg/kg
  Plasma rhein concentration: 13.29 µg/mL and 34.33 µg/mL
[6]; ig 35 mg/kg
  AUC: 69.52 ± 9.13 µg·h/mL
  actually-measured peak time: 0.42 ± 0.26 h
  calculated half life: 3.22 ± 1.21 h
  peak concentration: 37.96 ± 12.87 µg/mL
[6]; ig 70 mg/kg
  AUC: 164.29 ± 44.77 µg·h/mL
  actually-measured peak time: 0.50 ± 0.27 h
  calculated half life: 3.68 ± 1.42 h
  peak concentration: 54.64 ± 11.60 µg/mL
[6]; ig 140 mg/kg
  AUC: 237.75 ± 42.81 µg·h/mL
  actually-measured peak time: 0.38 ± 0.14 h
  calculated half life: 4.30 ± 1.55 h
  peak concentration: 67.17 ± 14.62 µg/mL
[6]; ig 35-140 mg/kg
  pharmacokinetics in the tested dosage range (dose linearity): approximately linear
